Source: patent US9877940B2, “Anthraquinone compounds and their uses” (DUNDALK INSTITUTE OF TECHNOLOGY, priority 2010, dated 2018)

Key:
BK channels [1] = biological target: T1, BK channels (Oryctolagus cuniculus, UniProt Q9BG98); experiment: Single channel recordings, inside-out patch clamp, voltage ramps, isolated smooth muscle cells of the rabbit bladder; type: cell-based; details: for ΔV1/2 (mV) in 100 nm Ca^2+: 10 μM compound, inside-out patch; for effect on BK channel activity, in words (SAR discussion based on V1/2 data): inside out patches on rabbit smooth muscle cells
T1 construct: wherein the native BK channels were more sensitive to Ca^2+; from tissue
Description: All experiments were approved by the Dundalk Institute of Technology Animal Care and Use Committee. […] The urinary bladder and most proximal 1.5 cm of the urethra was removed and placed in Krebs solution. Strips of bladder tissue, 0.5 cm in width were dissected, cut into 1 mm^3 pieces and stored in Ca^2+-free Hanks' solution for 30 min prior to cell dispersal. Tissue pieces were incubated in dispersal medium containing (per 5 ml) of Ca^2+-free Hanks' solution: 15 mg collagenase (Sigma type 1A), 1 mg protease (Sigma type XXIV), 10 mg bovine serum albumin (Sigma) and 10 mg trypsin inhibitor (Sigma) for 10-15 min at 37° C. Tissue was then transferred to Ca^2+-free Hanks' solution and stirred for a further 10-15 min to release single smooth muscle cells. These were plated in Petri dishes containing 100 μM Ca^2+ Hanks' solution and stored at 4° C. for use within 8 h. During experiments, the dish containing the cells was continuously perfused with Hanks' solution at 36±1° C. Additionally the cell under study was continuously superfused by means of a custom built close delivery system with a pipette of tip diameter 200 μm placed approximately 300 μm from the cell. The high K^+ solution in the close delivery system could be switched to a drug-containing solution with a dead space time of less than 5 s.
For whole cell recordings pipettes were pulled from borosilicate glass capillary tubing (1.5 mm outer diameter, 1.17 mm inner diameter; Clark Medical Instruments) to a tip of diameter approximately 1-1.5 μm and resistance of 2-4 Mohms. For single channel recordings, pipettes were pulled from borosilicate glass capillary tubing (1.5 mm outer diameter, 0.8 mm inner diameter; Clark Medical Instruments) and fire polished before use. Voltage clamp commands were delivered via an Axopatch 1D or Axon 200B patch clamp amplifiers (Axon Instruments) and membrane currents were recorded by a 12 bit AD/DA converter (Axodata 1200 or Labmaster, Scientific Solutions) interfaced to an Intel computer running pCLAMP software.
All values in (mM): KCl, 140. Glucose, 10, EGTA 1 and HEPES, 10. For free Ca^2+ greater than 300 nM: All values in (mM): KCl, 140. Glucose, 10, H-EDTA 1 and HEPES, 10. The same solution composition is used in the bath as in the patch pipette for these experiments except that the pipette solution contained 100 nM Ca^2+.
In single channel experiments voltage commands were applied using pClamp ramped potentials. This allowed more efficient measurement of slope conductance and channel activation than conventional step depolarisations. Activation curves were calculated by averaging current responses to 15 potential ramps and dividing each data point of the averaged current by the single channel amplitude at that holding potential, after leakage current correction. […] This analysis provides a continuous recording of the number of open channels multiplied by the open probability (NPo) over the entire voltage range. To obtain values for the steepness of the voltage-dependent activation and half-maximal activation voltage, activation curves were fitted with Boltzman functions of the form: NPo=n/{1+exp[−K(V−V1/2)]} where N is the number of channels in the patch, n is the maximal NPo level, K^−1 is the steepness of the voltage-dependent activation (change in potential necessary to cause an e-fold increase in activation) and V1/2 is the voltage at which there is half-maximal activation. Again, all of the experiments were carried out at 36±1° C.
The patches were held at a potential of −100 mV and voltage ramps were then applied from −100 mV up to +100 mV over 2 s.
Patches were held at −100 mV and ramped through to +100 mV and each sweep was repeated 15 times. The same protocol was repeated after the patch was incubated in 1 μM Ca^2+.

BK channels [2] = biological target: T1, BK channels; experiment: Perforated patch whole cell patch clamp, outward BK current in isolated smooth muscle cells; type: cell-based, rabbit; details: 10 μM; steps from −80 mV to +50 mV; holding −60 mV
Description: The cell membrane was perforated using the antibiotic amphotericin B (600 μg·ml^−1).
Standard Hank's solution is used to bathe the cells in these experiments. Isolated smooth muscle cells from rabbit urethra we held at −60 mV. The test protocol involved stepping from −60 mV to −80 mV for 500 msecs, and then stepping the voltage up in +10 mV increments to +50 mV before returning to the holding potential of −60 mV.

L-type calcium channel = experiment: Inward L-type calcium current, perforated patch clamp with Cs+ pipette solution, isolated smooth muscle cells of the rabbit bladder; type: cell-based; details: held at −60 mV, stepped to 0 mV for 500 ms
Description: Using methods described above herein, the patch pipette solution was altered to allow for measurement of inward L-type calcium currents which although present in earlier studies are not visible due to the overwhelming size of the outward BK current. By replacing K^+ with Cs^+ ions, the outward current is now blocked and a prominent inward current carried by Calcium is present. This is the L-type calcium ion channel currents allowing calcium into the cells.
All values in (mM): CsCl, 132.96. MgCl2.6H20, 1. EGTA, 0.5 and HEPES, 10.
With reference to FIG. 5, isolated smooth muscle cells from the rabbit bladder were held at −60 mV and stepped to 0 mV for 500 ms. Pipette solutions contained Cs^+ to block outward K^+ currents.

BK channel = BK channel (Homo sapiens, UniProt Q12791); details: applied to the inside of the membrane; cited from earlier work
BK channel, sequence (Q12791 whole entry, species assumed): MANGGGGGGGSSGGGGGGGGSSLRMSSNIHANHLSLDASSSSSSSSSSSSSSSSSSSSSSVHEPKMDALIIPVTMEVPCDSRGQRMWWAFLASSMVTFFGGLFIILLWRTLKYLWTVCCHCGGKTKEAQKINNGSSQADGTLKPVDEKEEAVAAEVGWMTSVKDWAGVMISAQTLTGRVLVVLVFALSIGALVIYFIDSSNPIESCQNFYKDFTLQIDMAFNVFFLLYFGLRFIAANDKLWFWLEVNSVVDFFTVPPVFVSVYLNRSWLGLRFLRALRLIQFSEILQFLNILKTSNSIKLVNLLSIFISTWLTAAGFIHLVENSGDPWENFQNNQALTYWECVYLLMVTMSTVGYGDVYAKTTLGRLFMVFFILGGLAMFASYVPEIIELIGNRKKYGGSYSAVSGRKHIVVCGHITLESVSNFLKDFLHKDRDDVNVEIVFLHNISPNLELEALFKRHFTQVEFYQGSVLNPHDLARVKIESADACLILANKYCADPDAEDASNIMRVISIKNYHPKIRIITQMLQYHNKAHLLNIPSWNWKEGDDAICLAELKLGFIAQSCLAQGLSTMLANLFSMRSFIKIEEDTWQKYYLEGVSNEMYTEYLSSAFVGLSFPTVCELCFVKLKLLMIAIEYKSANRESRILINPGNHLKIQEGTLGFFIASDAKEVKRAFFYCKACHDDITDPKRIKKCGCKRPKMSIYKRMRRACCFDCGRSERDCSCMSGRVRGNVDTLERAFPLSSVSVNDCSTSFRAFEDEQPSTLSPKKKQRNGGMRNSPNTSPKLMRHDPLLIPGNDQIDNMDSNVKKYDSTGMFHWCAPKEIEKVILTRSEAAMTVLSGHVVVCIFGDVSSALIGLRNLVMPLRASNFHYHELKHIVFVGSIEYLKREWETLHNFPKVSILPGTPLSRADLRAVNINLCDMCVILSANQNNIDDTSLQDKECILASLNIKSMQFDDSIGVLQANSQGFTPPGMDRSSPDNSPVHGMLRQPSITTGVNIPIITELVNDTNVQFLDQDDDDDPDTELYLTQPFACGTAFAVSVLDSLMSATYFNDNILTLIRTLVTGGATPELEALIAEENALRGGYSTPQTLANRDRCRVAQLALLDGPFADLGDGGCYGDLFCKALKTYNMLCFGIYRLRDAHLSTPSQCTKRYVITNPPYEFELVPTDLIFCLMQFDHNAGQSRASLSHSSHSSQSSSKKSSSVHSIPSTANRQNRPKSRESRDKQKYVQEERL
BK channel, sequence (Q16558 whole entry partner, species assumed): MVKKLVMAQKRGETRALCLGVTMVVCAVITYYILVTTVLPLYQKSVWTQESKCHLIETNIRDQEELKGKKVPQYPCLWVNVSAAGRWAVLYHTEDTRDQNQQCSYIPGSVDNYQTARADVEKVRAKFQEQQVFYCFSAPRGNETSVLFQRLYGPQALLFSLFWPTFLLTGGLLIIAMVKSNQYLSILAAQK

T1 sequence (Q9BG98 whole entry): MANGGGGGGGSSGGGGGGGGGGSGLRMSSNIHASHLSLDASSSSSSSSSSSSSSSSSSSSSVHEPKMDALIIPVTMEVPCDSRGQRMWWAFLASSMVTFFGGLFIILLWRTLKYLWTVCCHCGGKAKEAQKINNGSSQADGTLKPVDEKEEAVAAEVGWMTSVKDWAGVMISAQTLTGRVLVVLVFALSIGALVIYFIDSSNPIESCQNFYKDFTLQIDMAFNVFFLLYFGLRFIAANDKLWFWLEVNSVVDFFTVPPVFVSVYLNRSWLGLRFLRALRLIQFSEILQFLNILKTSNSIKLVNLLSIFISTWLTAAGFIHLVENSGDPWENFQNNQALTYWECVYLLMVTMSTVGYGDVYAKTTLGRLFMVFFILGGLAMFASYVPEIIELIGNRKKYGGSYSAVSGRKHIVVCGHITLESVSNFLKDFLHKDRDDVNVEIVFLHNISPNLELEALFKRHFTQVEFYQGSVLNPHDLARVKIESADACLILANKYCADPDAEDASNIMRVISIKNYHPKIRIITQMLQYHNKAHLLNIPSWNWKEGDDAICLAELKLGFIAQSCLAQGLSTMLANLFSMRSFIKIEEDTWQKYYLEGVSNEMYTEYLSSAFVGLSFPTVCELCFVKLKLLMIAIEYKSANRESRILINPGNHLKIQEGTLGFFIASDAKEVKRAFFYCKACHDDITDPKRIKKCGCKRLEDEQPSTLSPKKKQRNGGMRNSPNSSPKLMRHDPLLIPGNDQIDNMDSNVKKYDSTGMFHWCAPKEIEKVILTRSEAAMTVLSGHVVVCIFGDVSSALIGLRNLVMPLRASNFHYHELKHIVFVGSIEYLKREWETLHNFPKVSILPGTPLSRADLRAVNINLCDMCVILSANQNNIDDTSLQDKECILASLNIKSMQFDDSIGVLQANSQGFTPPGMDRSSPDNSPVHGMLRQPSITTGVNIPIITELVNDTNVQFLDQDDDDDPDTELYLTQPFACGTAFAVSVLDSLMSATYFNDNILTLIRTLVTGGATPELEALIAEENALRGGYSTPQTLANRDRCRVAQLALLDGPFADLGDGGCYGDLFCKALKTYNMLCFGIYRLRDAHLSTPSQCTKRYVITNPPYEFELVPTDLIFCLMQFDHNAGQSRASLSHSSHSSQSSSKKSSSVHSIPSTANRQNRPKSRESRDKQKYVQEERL

Compound	ΔV1/2 (mV) in 100 nm Ca^2+ (BK channels [1]; Table 2) [mV]	effect on BK channel activity, in words (SAR discussion based on V1/2 data) (BK channels [1])	further results
Nc1c(S(=O)(=O)[O-])cc(Nc2ccccc2)c2c1C(=O)c1ccccc1C2=O.[Na+] [Acid Blue 25, Sodium 1-Amino-9,10-Dioxo-4-(Phenylamino)-9,10-Dihydroanthracene-2-Sulfonate]			ΔV1/2 (mV) in 100 nm Ca^2+ (BK channels [1]; Table 1, V1/2 control vs drug): −51.0 mV; shifted the V1/2 by (BK channels [1]; inside out patches, concentration not given): −56 mV; amplitude of the outward BK current compared to control (BK channels [2]): enhances the amplitude of the BK current
Nc1c(S(=O)(=O)[O-])cc(Nc2cccc(C(F)(F)F)c2)c2c1C(=O)c1ccccc1C2=O.[Na+] [SR-5-6, sodium 1-amino-9,10-dioxo-4-(3-(trifluoromethyl)phenylamino)-9,10-dihydroanthracene-2-sulfonate]			inward L-type calcium current amplitude (L-type calcium channel): reduced in amplitude
Nc1c(S(=O)(=O)[O-])cc(Nc2ccc3ccccc3c2)c2c1C(=O)c1ccccc1C2=O.[Na+] [SR-5-72, sodium 1-amino-4-((naphthalen-2-yl)amino)-9,10-dioxo-9,10-dihydroanthracene-2-sulfonate]	−103.8	dramatic increase in the activity	shifted the V1/2 by (BK channels [1]; 1 μM): 93 mV
CC(C)(C)c1cccc(Nc2cc(S(=O)(=O)[O-])c(N)c3c2C(=O)c2ccccc2C3=O)c1.[Na+] [SR-5-76, sodium 1-amino-4-((3-(tert-butyl)phenyl)amino)-9,10-dioxo-9,10-dihydroanthracene-2-sulfonate]	−94.9	BK channel agonists	
Nc1c(C(=O)O)cc(Nc2cccc(C(F)(F)F)c2)c2c1C(=O)c1ccccc1C2=O [SR-5-88, 1-amino-9,10-dioxo-4-((3-(trifluoromethyl)phenyl)amino)-9,10-dihydroanthracene-2-carboxylic acid]	−98.8	activity was not altered	
Nc1c(S(=O)(=O)[O-])cc(Nc2cccc(-c3ccccc3)c2)c2c1C(=O)c1ccccc1C2=O.[Na+] [SR-5-94, sodium 4-([1,1′-biphenyl]-3-ylamino)-1-amino-9,10-dioxo-9,10-dihydroanthracene-2-sulfonate]	−60.0		
CCc1ccccc1Nc1cc(S(=O)(=O)[O-])c(N)c2c1C(=O)c1ccccc1C2=O.[Na+] [SR-5-96, sodium 1-amino-4-((2-ethylphenyl)amino)-9,10-dioxo-9,10-dihydroanthracene-2-sulfonate]	−84.8	BK channel agonists	
CCc1ccc(Nc2cc(S(=O)(=O)[O-])c(N)c3c2C(=O)c2ccccc2C3=O)cc1.[Na+] [SR-5-97, sodium 1-amino-4-((4-ethylphenyl)amino)-9,10-dioxo-9,10-dihydroanthracene-2-sulfonate]	−78.5	BK channel openers	
CC(C)c1ccccc1Nc1cc(S(=O)(=O)[O-])c(N)c2c1C(=O)c1ccccc1C2=O.[Na+] [SR-5-98, sodium 1-amino-4((2-isopropylphenyl)amino)-9,10-dioxo-9,10-dihydroanthracene-2-sulfonate]	−120.0	BK channel agonists	
CC(C)c1ccc(Nc2cc(S(=O)(=O)[O-])c(N)c3c2C(=O)c2ccccc2C3=O)cc1.[Na+] [SR-5-99, sodium 1-amino-4-((4-isopropylphenyl)amino)-9,10-dioxo-9,10-dihydroanthracene-2-sulfonate]	−83.4	BK channel openers	
Basilen blue			BK channel activation, in words (BK channel): moderately potent BK channel activator
